Results on three molecules are retold here after EP4813403A1, “USE OF GLP-1R/GIPR DOUBLE-TARGET AGONIST IN PREPARING ANIMAL DRUG” (Hangzhou Zhongmeihuadong Pharmaceutical Co., Ltd., priority 2023, dated 2025).

For one data set, the target named is T1, human GIP Receptor (Homo sapiens, UniProt P48546).
T1 construct: expressed in transfected cells
T1 sequence (P48546 22-466): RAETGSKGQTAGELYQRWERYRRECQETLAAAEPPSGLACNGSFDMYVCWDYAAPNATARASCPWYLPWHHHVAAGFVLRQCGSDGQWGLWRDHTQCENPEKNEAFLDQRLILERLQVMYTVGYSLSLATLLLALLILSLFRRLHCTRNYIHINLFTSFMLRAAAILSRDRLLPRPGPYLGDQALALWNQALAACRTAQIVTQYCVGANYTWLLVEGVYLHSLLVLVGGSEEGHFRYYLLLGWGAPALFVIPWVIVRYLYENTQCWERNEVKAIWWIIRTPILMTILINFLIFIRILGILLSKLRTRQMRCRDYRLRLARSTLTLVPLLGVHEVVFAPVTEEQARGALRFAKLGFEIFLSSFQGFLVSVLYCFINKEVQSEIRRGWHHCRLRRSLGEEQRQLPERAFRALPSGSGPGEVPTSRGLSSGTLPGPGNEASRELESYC
Put plainly: In vitro binding activity to human GIP receptor ([125I]GIP displacement, crude cell membranes). The conditions noted are these: ratio of the Ki value of the endogenous ligand to the Ki value of the test compound; larger ratio = stronger binding. The method, then:
(§1) 89 µL of membrane dissolved in binding buffer (50 mM Hepes, pH 7.4, 5 mM MgCl2 , 5 mM EDTA, 0.005% TWEEN, 0.005% HSA) was transferred to a 96-well test plate (5 µg/well). The compound was serially diluted in DMSO, and then, 1 µL of the diluted compound or 100% DMSO was added to the test plate containing the membrane solution. 10 µL of [^125I] […] The test plate was left at room temperature for 90 minutes. The membrane complexes were harvested into a GF/B plate pre-coated with 0.5% PEI by using a Cell Harvester, and washed for 3 times with 500 µL of pre-cooled elution buffer (50 mM Hepes, pH 7.4, 500 mM NaCl) at 4°C. After drying at 37°C for 2 hours, 50 µL of scintillation fluid was added to each well. The plate was read with a MicroBeta2 scintillation counter after sealing and settling for at least 1 hour so as to determine the membrane bound radioligand level.
hGIP and the compound of the present invention were dissolved in DMSO and stored at -80°C. 98 µL of membrane dissolved in binding buffer (50 mM HEPES pH 7.4, 5 mM MgCl2, 1 mM CaCl2, 0.1% BSA, 0.005% Tween-20) was transferred to a 96-well test plate (15 µg/well). The compound was serially diluted in DMSO, and then, 2 µL of the diluted compounds or 100% DMSO was added to the test plate containing the membrane solution. […] The test plate was left at room temperature for 90 minutes. The membrane complexes were harvested into a GF/B plate pre-coated with 0.5% PEI by using a Cell Harvester, and washed for 3 times with 500 µL of pre-cooled elution buffer (50 mM Tris-HCl pH 7.4, 125 mM NaCl) at 4°C. After drying at 37°C for 2 hours, 50 µL of scintillation fluid was added to each well. The plate was read with a MicroBeta2 scintillation counter after sealing and settling for at least 1 hour so as to determine the membrane bound radioligand level.
The IC50 concentration was converted to Ki (Ki was the inhibition constant) using the Cheng-Prusoff equation. Table 1. Receptor Binding Affinity, Ki Ratio

Data set [1] can be described thus: Pharmacokinetics following single administration in SD rats. The following applies: male, Sprague-Dawley, rat, in vivo, sc. The protocol:
The compound was administrated to male SD rats (230-268 g, n=3) at a dose of 50.0 nmol/kg (s.c.) or 25.0 nmol/kg (i.v.). […] 30.0 μL of thawed plasma sample was taken. 150 μL of acetonitrile solution (containing 5 ng·mL^-1 Verapamil , 50 ng·mL^-1 Glibenclamide, 200 ng·mL^-1 Tolbutamide and 200 ng·mL^-1 Diclofenac) were added to precipitate protein. The mixture was vortexed for 5 minutes, and centrifuged at 3700 rpm for 8 minutes. 70.0 μL of the supernatant was taken, into which 70.0 μL of 0.5% aqueous formic acid solution was added. The mixture was vortexed for 5 minutes. 15 μL of the mixture solution was sampled and injected into the LC-MS/MS to determine the drug concentration in plasma. 20.0 μL of thawed plasma sample was taken. 60 μL of acetonitrile solution (containing 5 ng·mL^-1 Verapamil, 50 ng·mL^-1 Glibenclamide, 200 ng·mL^-1 Tolbutamide and 200 ng·mL^-1 Diclofenac) were added to precipitate protein. […] The mixture was vortexed for 10 minutes. 10.0 μL of the mixture solution was sampled and injected into the LC-MS/MS to determine the drug concentration in plasma. 30.0 μL of thawed plasma sample was taken. 150 μL of acetonitrile solution (containing 5 ng·mL^-1 Verapamil, 50 ng·mL^-1 Glibenclamide, 200 ng·mL^-1 Tolbutamide and 200 ng·mL^-1 Diclofenac) were added to precipitate protein. The mixture was vortexed for 5 minutes, and centrifuged at 3700 rpm for 8 minutes. 70.0 μL of the supernatant was taken, into which 70.0 μL of 0.5% aqueous formic acid solution was added. The mixture was vortexed for 5 minutes. 10.0 μL of the mixture solution was sampled and injected into the LC-MS/MS to determine the drug concentration in plasma. […] Table 5 Pharmacokinetic Parameters after Subcutaneous Injection of Different Polypeptide Compounds to Rats

Another data set concerns db/db mice. Description: Pharmacodynamic effects in db/db mice, single subcutaneous administration (blood glucose). Type of data set: in vivo. The following applies: single s.c. 10 nmol/kg. The protocol: In this study, 8-9 week old male db/db mice were used. The db/db mice were placed in an individual ventilated cage (IVC) facility with a controlled temperature (20-26°C) and humidity (40-70%) and a controlled 12h:12 h light-dark cycle. The mice can receive food and water ad libitum. Blood was sampled at the tail tip, and the random base blood glucose was measured by a Roche blood glucose meter. The mice were randomly divided into groups according to the random initial fasting blood glucose and initial body weight (n=6/group), and each group had similar body weight and blood glucose.
After a single subcutaneous administration, the random base blood glucoses were recorded at the set time point (0 to 120 hours, the recording of the random base blood glucose was stopped until there was no difference between the random base blood glucose of the compound and that of the vehicle group), and the daily body weight and food intake were also recorded. The data results were statistically analyzed using GraphPad Prism8, and the statistical differences among the groups were analyzed following a T-Test. Significant differences were identified at p<0.05.
Hypoglycemic Duration: the longest time during which the random base blood glucose of the compound has a significant difference (p<0.05) vs. the vehicle group. Table 13. Hypoglycemic Duration of the Compounds

A further data set concerns the target human GLP-1R (Homo sapiens, UniProt P43220). Description: In vitro binding activity to human GLP-1 receptor ([125I]GLP-1 displacement, crude cell membranes). Further details: expressed in transfected cells. The conditions noted are these: ratio of the Ki value of the endogenous ligand to the Ki value of the test compound; larger ratio = stronger binding. The protocol: as §1
The IC50 concentration was converted to Ki (Ki was the inhibition constant) using the Cheng-Prusoff equation.

The mark [2] stands for this setting: Group 2, longest time with p<0.05 vs. vehicle.

human GLP-1R, sequence (P43220 24-463): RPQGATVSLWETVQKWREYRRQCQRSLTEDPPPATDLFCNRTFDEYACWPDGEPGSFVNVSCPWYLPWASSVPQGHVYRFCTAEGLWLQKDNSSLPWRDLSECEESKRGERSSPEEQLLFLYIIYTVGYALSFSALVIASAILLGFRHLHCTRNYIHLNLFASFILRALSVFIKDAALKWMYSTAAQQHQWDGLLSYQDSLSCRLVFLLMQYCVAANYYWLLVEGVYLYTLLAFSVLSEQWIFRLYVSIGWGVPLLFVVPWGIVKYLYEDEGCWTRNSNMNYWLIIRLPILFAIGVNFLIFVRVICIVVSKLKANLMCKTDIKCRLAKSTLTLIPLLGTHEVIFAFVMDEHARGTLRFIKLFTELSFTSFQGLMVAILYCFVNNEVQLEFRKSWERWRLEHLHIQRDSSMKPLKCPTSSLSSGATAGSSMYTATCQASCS

Consider `CC[C@H](C)[C@H](NC(=O)C(C)(C)NC(=O)[C@H](Cc1ccc(O)cc1)NC(=O)[C@H](CC(=O)O)NC(=O)[C@H](CO)NC(=O)[C@@H](NC(=O)C(C)(Cc1ccccc1)NC(=O)[C@@H](NC(=O)CNC(=O)[C@H](CCC(=O)O)NC(=O)C(C)(C)NC(=O)[C@@H](N)Cc1ccc(O)cc1)[C@@H](C)O)[C@@H](C)O)C(=O)NC(C)(C)C(=O)N[C@@H](CC(C)C)C(=O)N[C@@H](CC(=O)O)C(=O)N[C@@H](CCCCN)C(=O)N[C@@H](CCC(N)=O)C(=O)N[C@@H](C)C(=O)N[C@@H](CCC(N)=O)C(=O)N[C@@H](C)C(=O)N[C@@H](CCC(=O)O)C(=O)N[C@@H](Cc1ccccc1)C(=O)N[C@H](C(=O)N[C@@H](CCCCN)C(=O)N[C@@H](Cc1c[nH]c2ccccc12)C(=O)N[C@@H](CC(C)C)C(=O)N[C@@H](CC(C)C)C(=O)N[C@@H](CCCCNC(=O)COCCOCCNC(=O)COCCOCCNC(=O)COCCOCCNC(=O)CC[C@H](NC(=O)CCCCCCCCCCCCCCCCC(=O)O)C(=O)O)C(=O)NCC(=O)NCC(=O)N1CCC[C@H]1C(=O)N[C@@H](CO)C(=O)N[C@@H](CO)C(=O)NCC(=O)N[C@@H](C)C(=O)N1CCC[C@H]1C(=O)N1CCC[C@H]1C(=O)N1CCC[C@H]1C(=O)N[C@@H](CO)C(=O)N[C@@H](CCCCN)C(N)=O)C(C)C` (stereo partly shown) [Compound P019], for which, at human GIP Receptor, the “GIPR Ki ratio” value was determined as 0.09. Further, in data set [1], the Tmax worked out at 13.3 ± 9.24 h and the half-life was 10.9 ± 1.92 h. Besides, in the data set on db/db mice, the “inhibition of the blood glucose AUC, times of that of P001” value is recorded as 2.2 times. Besides, in the data set on db/db mice (Group 1, longest time with p<0.05 vs. vehicle), the “Hypoglycemic Duration” value turned out to be 56 h. Further, the “GLP-1R Ki ratio” value at human GLP-1R was found to be 0.93.
For the molecule `CC[C@H](C)[C@H](NC(=O)C(C)(C)NC(=O)[C@H](Cc1ccc(O)cc1)NC(=O)[C@H](CC(=O)O)NC(=O)[C@H](CO)NC(=O)[C@@H](NC(=O)C(C)(Cc1ccccc1)NC(=O)[C@@H](NC(=O)CNC(=O)[C@H](CCC(=O)O)NC(=O)C(C)(C)NC(=O)[C@@H](N)Cc1ccc(O)cc1)[C@@H](C)O)[C@@H](C)O)C(=O)NC(C)(C)C(=O)N[C@@H](CC(C)C)C(=O)N[C@@H](CC(=O)O)C(=O)N[C@@H](CCCCN)C(=O)N[C@@H](CCC(N)=O)C(=O)N[C@@H](C)C(=O)N[C@@H](CCC(N)=O)C(=O)N[C@@H](C)C(=O)N[C@@H](CCC(=O)O)C(=O)N[C@@H](Cc1ccccc1)C(=O)N[C@H](C(=O)N[C@@H](CCCCNC(=O)COCCOCCNC(=O)COCCOCCNC(=O)CC[C@H](NC(=O)CCCCCCCCCCCCCCCCCCC(=O)O)C(=O)O)C(=O)N[C@@H](Cc1c[nH]c2ccccc12)C(=O)N[C@@H](CC(C)C)C(=O)N[C@@H](CC(C)C)C(=O)N[C@@H](CCCCN)C(=O)NCC(=O)NCC(=O)N1CCC[C@H]1C(=O)N[C@@H](CO)C(=O)N[C@@H](CO)C(=O)NCC(=O)N[C@@H](C)C(=O)N1CCC[C@H]1C(=O)N1CCC[C@H]1C(=O)N1CCC[C@H]1C(=O)N[C@@H](CO)C(=O)N[C@@H](CCCCN)C(N)=O)C(C)C` (stereo partly shown) [Compound P013], the “GIPR Ki ratio” value on human GIP Receptor was 0.14. Also, in data set [1], the time to peak (Tmax) was 24 h and the half-life was 15 ± 0.737 h. For the same molecule, the “Hypoglycemic Duration” value in the data set with db/db mice (setting [2]) is given as 72 h. Besides, the “GLP-1R Ki ratio” value on human GLP-1R worked out at 0.28.
The matching figures for `CC[C@H](C)[C@H](NC(=O)C(C)(C)NC(=O)[C@H](Cc1ccc(O)cc1)NC(=O)[C@H](CC(=O)O)NC(=O)[C@H](CO)NC(=O)[C@@H](NC(=O)C(C)(Cc1ccccc1)NC(=O)[C@@H](NC(=O)CNC(=O)[C@H](CCC(=O)O)NC(=O)C(C)(C)NC(=O)[C@@H](N)Cc1ccc(O)cc1)[C@@H](C)O)[C@@H](C)O)C(=O)NC(C)(C)C(=O)N[C@@H](CC(C)C)C(=O)N[C@@H](CC(=O)O)C(=O)N[C@@H](CCCCN)C(=O)N[C@@H](CCC(N)=O)C(=O)N[C@@H](C)C(=O)N[C@@H](CCC(N)=O)C(=O)N[C@@H](C)C(=O)N[C@@H](CCC(=O)O)C(=O)N[C@@H](Cc1ccccc1)C(=O)N[C@H](C(=O)N[C@@H](CCCCN)C(=O)N[C@@H](Cc1c[nH]c2ccccc12)C(=O)N[C@@H](CC(C)C)C(=O)N[C@@H](CC(C)C)C(=O)N[C@@H](CCCCNC(=O)COCCOCCNC(=O)COCCOCCNC(=O)CC[C@H](NC(=O)CC[C@H](NC(=O)CC[C@H](NC(=O)CCCCCCCCCCCCCCCCC(=O)O)C(=O)O)C(=O)O)C(=O)O)C(=O)NCC(=O)NCC(=O)N1CCC[C@H]1C(=O)N[C@@H](CO)C(=O)N[C@@H](CO)C(=O)NCC(=O)N[C@@H](C)C(=O)N1CCC[C@H]1C(=O)N1CCC[C@H]1C(=O)N1CCC[C@H]1C(=O)N[C@@H](CO)C(=O)N[C@@H](CCCCN)C(N)=O)C(C)C` (stereo partly shown) [Compound P018]: 0.05, 24 h, 18.3 ± 6.77 h, 48 h and 1.45.
